# Results taken from PubChem BioAssay (NCI).
#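 Compound exposure: 48 hours, 5 concentrations, 96-well plates. TGI: concentration producing complete growth inhibition.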
# Tests used:
# Assay in all cases: NCI anticancer screen, dose series, 48 h
# 786-0 renal = tested on: 786-0 renal
# SF-539 CNS = tested on: SF-539 CNS
# A549 NSCLC = tested on: A549 NSCLC
# SF-268 CNS = tested on: SF-268 CNS
# EKVX NSCLC = tested on: EKVX NSCLC
# OVCAR-5 ovarian = tested on: OVCAR-5 ovarian
# SK-OV-3 ovarian = tested on: SK-OV-3 ovarian
# KM12 colon = tested on: KM12 colon
# MDA-MB-435 = tested on: MDA-MB-435
# MDA-N = tested on: MDA-N
# UO-31 renal = tested on: UO-31 renal
# DU-145 prostate = tested on: DU-145 prostate
# HOP-92 NSCLC = tested on: HOP-92 NSCLC
# TK-10 renal = tested on: TK-10 renal
# HL-60(TB) leukemia = tested on: HL-60(TB) leukemia
# OVCAR-4 ovarian = tested on: OVCAR-4 ovarian
# SN12C renal = tested on: SN12C renal
# SK-MEL-28 melanoma = tested on: SK-MEL-28 melanoma
# NCI-H522 lung = tested on: NCI-H522 lung
# U251 CNS = tested on: U251 CNS
# NCI-H23 lung = tested on: NCI-H23 lung
# SNB-19 CNS = tested on: SNB-19 CNS
# SK-MEL-2 melanoma = tested on: SK-MEL-2 melanoma
# RPMI-8226 leukemia = tested on: RPMI-8226 leukemia
# IGROV1 ovarian = tested on: IGROV1 ovarian
# NCI/ADR-RES ovarian = tested on: NCI/ADR-RES ovarian
# HS 578T breast = tested on: HS 578T breast
# MCF7 breast = tested on: MCF7 breast
# NCI-H460 lung = tested on: NCI-H460 lung
# HCT-15 colon = tested on: HCT-15 colon
# COLO 205 colon = tested on: COLO 205 colon
# MDA-MB-231 breast = tested on: MDA-MB-231 breast
# MALME-3M melanoma = tested on: MALME-3M melanoma
# UACC-257 melanoma = tested on: UACC-257 melanoma
# M14 melanoma = tested on: M14 melanoma
# SR leukemia = tested on: SR leukemia
# HT29 colon = tested on: HT29 colon
# OVCAR-3 ovarian = tested on: OVCAR-3 ovarian
# HOP-62 NSCLC = tested on: HOP-62 NSCLC
# HCC-2998 colon = tested on: HCC-2998 colon
# UACC-62 melanoma = tested on: UACC-62 melanoma
# SNB-75 CNS = tested on: SNB-75 CNS
# SF-295 CNS = tested on: SF-295 CNS
# CAKI-1 renal = tested on: CAKI-1 renal
# SK-MEL-5 melanoma = tested on: SK-MEL-5 melanoma
# BT-549 breast = tested on: BT-549 breast
# HCT-116 colon = tested on: HCT-116 colon
# ACHN renal = tested on: ACHN renal
# NCI-H226 lung = tested on: NCI-H226 lung
# MOLT-4 leukemia = tested on: MOLT-4 leukemia
# OVCAR-8 ovarian = tested on: OVCAR-8 ovarian
# K-562 leukemia = tested on: K-562 leukemia
# A498 renal = tested on: A498 renal
# PC-3 prostate = tested on: PC-3 prostate
# SW-620 colon = tested on: SW-620 colon
# LOX IMVI melanoma = tested on: LOX IMVI melanoma
# T-47D breast = tested on: T-47D breast
# RXF 393 renal = tested on: RXF 393 renal
# CCRF-CEM leukemia = tested on: CCRF-CEM leukemia
smiles,measurement,setting,value
CC(C)(C)NCc1cc(C(C)(C)C)cc(-c2ccc(Cl)cc2)c1O,TGI,786-0 renal,26.8 µM
same,TGI,SF-539 CNS,27.9 µM
same,TGI,A549 NSCLC,32.4 µM
same,TGI,SF-268 CNS,30.8 µM
same,TGI,EKVX NSCLC,32.4 µM
same,TGI,OVCAR-5 ovarian,28.2 µM
same,TGI,SK-OV-3 ovarian,31.5 µM
same,TGI,KM12 colon,27.1 µM
same,TGI,MDA-MB-435,25.2 µM
same,TGI,MDA-N,31.4 µM
same,TGI,UO-31 renal,15.1 µM
same,TGI,DU-145 prostate,24.7 µM
same,TGI,HOP-92 NSCLC,28.3 µM
same,TGI,TK-10 renal,26 µM
same,TGI,HL-60(TB) leukemia,23.4 µM
same,TGI,OVCAR-4 ovarian,41.3 µM
same,TGI,SN12C renal,30.3 µM
same,TGI,SK-MEL-28 melanoma,28.2 µM
same,TGI,NCI-H522 lung,24.8 µM
same,TGI,U251 CNS,24.1 µM
same,TGI,NCI-H23 lung,29.4 µM
same,TGI,SNB-19 CNS,30.5 µM
same,TGI,SK-MEL-2 melanoma,37.9 µM
same,TGI,RPMI-8226 leukemia,40.5 µM
same,TGI,IGROV1 ovarian,24.6 µM
same,TGI,NCI/ADR-RES ovarian,32.4 µM
same,TGI,HS 578T breast,29 µM
same,TGI,MCF7 breast,32.7 µM
same,TGI,NCI-H460 lung,34.8 µM
same,TGI,HCT-15 colon,25.7 µM
same,TGI,COLO 205 colon,23.8 µM
same,TGI,MDA-MB-231 breast,24.8 µM
same,TGI,MALME-3M melanoma,27.8 µM
same,TGI,UACC-257 melanoma,50.3 µM
same,TGI,M14 melanoma,28.8 µM
same,TGI,SR leukemia,40.4 µM
same,TGI,HT29 colon,53.2 µM
same,TGI,OVCAR-3 ovarian,29.5 µM
same,TGI,HOP-62 NSCLC,20.1 µM
same,TGI,HCC-2998 colon,29.6 µM
same,TGI,UACC-62 melanoma,32 µM
same,TGI,SNB-75 CNS,22.7 µM
same,TGI,SF-295 CNS,36.6 µM
same,TGI,CAKI-1 renal,25.6 µM
same,TGI,SK-MEL-5 melanoma,29.7 µM
same,TGI,BT-549 breast,27.9 µM
same,TGI,HCT-116 colon,26 µM
same,TGI,ACHN renal,26.7 µM
NNc1nc2ccccc2c(=O)n1NC(=O)C(=O)Nc1cccc(C(F)(F)F)c1,TGI,786-0 renal,> 100 µM
same,TGI,SF-539 CNS,> 100 µM
same,TGI,A549 NSCLC,> 100 µM
same,TGI,SF-268 CNS,> 100 µM
same,TGI,EKVX NSCLC,> 100 µM
same,TGI,OVCAR-5 ovarian,> 100 µM
same,TGI,SK-OV-3 ovarian,> 100 µM
same,TGI,KM12 colon,> 100 µM
same,TGI,MDA-MB-435,> 100 µM
same,TGI,MDA-N,> 100 µM
same,TGI,UO-31 renal,> 100 µM
same,TGI,HOP-92 NSCLC,> 100 µM
same,TGI,TK-10 renal,> 100 µM
same,TGI,HL-60(TB) leukemia,> 100 µM
same,TGI,NCI-H226 lung,> 100 µM
same,TGI,MOLT-4 leukemia,> 100 µM
same,TGI,OVCAR-4 ovarian,> 100 µM
same,TGI,SN12C renal,> 100 µM
same,TGI,SK-MEL-28 melanoma,> 100 µM
same,TGI,OVCAR-8 ovarian,> 100 µM
same,TGI,NCI-H522 lung,> 100 µM
same,TGI,U251 CNS,> 100 µM
same,TGI,NCI-H23 lung,> 100 µM
same,TGI,K-562 leukemia,> 100 µM
same,TGI,SNB-19 CNS,> 100 µM
same,TGI,SK-MEL-2 melanoma,> 100 µM
same,TGI,RPMI-8226 leukemia,> 100 µM
same,TGI,IGROV1 ovarian,> 100 µM
same,TGI,NCI/ADR-RES ovarian,> 100 µM
same,TGI,HS 578T breast,> 100 µM
same,TGI,MCF7 breast,> 100 µM
same,TGI,NCI-H460 lung,> 100 µM
same,TGI,A498 renal,> 100 µM
same,TGI,HCT-15 colon,> 100 µM
same,TGI,MDA-MB-231 breast,> 100 µM
same,TGI,MALME-3M melanoma,> 100 µM
same,TGI,UACC-257 melanoma,> 100 µM
same,TGI,M14 melanoma,> 100 µM
same,TGI,HT29 colon,> 100 µM
same,TGI,OVCAR-3 ovarian,> 100 µM
same,TGI,PC-3 prostate,> 100 µM
same,TGI,HOP-62 NSCLC,> 100 µM
same,TGI,SW-620 colon,> 100 µM
same,TGI,HCC-2998 colon,> 100 µM
same,TGI,UACC-62 melanoma,> 100 µM
same,TGI,SNB-75 CNS,> 100 µM
same,TGI,LOX IMVI melanoma,> 100 µM
same,TGI,SF-295 CNS,> 100 µM
same,TGI,CAKI-1 renal,> 100 µM
same,TGI,T-47D breast,> 100 µM
same,TGI,RXF 393 renal,> 100 µM
same,TGI,SK-MEL-5 melanoma,> 100 µM
same,TGI,BT-549 breast,> 100 µM
same,TGI,HCT-116 colon,> 100 µM
same,TGI,CCRF-CEM leukemia,> 100 µM
same,TGI,ACHN renal,> 100 µM
Cc1cc(-c2[nH]c(C(=O)O)cc2I)on1,TGI,786-0 renal,> 100 µM
same,TGI,A549 NSCLC,> 100 µM
same,TGI,SF-268 CNS,> 100 µM
same,TGI,EKVX NSCLC,> 100 µM
same,TGI,OVCAR-5 ovarian,> 100 µM
same,TGI,SK-OV-3 ovarian,> 100 µM
same,TGI,KM12 colon,> 100 µM
same,TGI,MDA-MB-435,> 100 µM
same,TGI,MDA-N,> 100 µM
same,TGI,UO-31 renal,> 100 µM
same,TGI,DU-145 prostate,> 100 µM
same,TGI,HOP-92 NSCLC,> 100 µM
same,TGI,TK-10 renal,> 100 µM
same,TGI,MOLT-4 leukemia,> 100 µM
same,TGI,OVCAR-4 ovarian,> 100 µM
same,TGI,SK-MEL-28 melanoma,> 100 µM
same,TGI,OVCAR-8 ovarian,81.9 µM
same,TGI,NCI-H522 lung,> 100 µM
same,TGI,U251 CNS,> 100 µM
same,TGI,NCI-H23 lung,> 100 µM
same,TGI,K-562 leukemia,> 100 µM
same,TGI,SNB-19 CNS,> 100 µM
same,TGI,SK-MEL-2 melanoma,> 100 µM
same,TGI,RPMI-8226 leukemia,> 100 µM
same,TGI,IGROV1 ovarian,> 100 µM
same,TGI,NCI/ADR-RES ovarian,> 100 µM
same,TGI,HS 578T breast,> 100 µM
same,TGI,MCF7 breast,> 100 µM
same,TGI,NCI-H460 lung,> 100 µM
same,TGI,A498 renal,> 100 µM
same,TGI,HCT-15 colon,> 100 µM
same,TGI,COLO 205 colon,> 100 µM
same,TGI,MDA-MB-231 breast,> 100 µM
same,TGI,MALME-3M melanoma,> 100 µM
same,TGI,UACC-257 melanoma,> 100 µM
same,TGI,M14 melanoma,> 100 µM
same,TGI,HT29 colon,> 100 µM
same,TGI,OVCAR-3 ovarian,> 100 µM
same,TGI,PC-3 prostate,> 100 µM
same,TGI,HOP-62 NSCLC,> 100 µM
same,TGI,SW-620 colon,> 100 µM
same,TGI,HCC-2998 colon,> 100 µM
same,TGI,UACC-62 melanoma,> 100 µM
same,TGI,SNB-75 CNS,> 100 µM
same,TGI,SF-295 CNS,> 100 µM
same,TGI,CAKI-1 renal,> 100 µM
same,TGI,RXF 393 renal,> 100 µM
same,TGI,SK-MEL-5 melanoma,> 100 µM
same,TGI,BT-549 breast,> 100 µM
same,TGI,HCT-116 colon,> 100 µM
same,TGI,ACHN renal,> 100 µM
O=[N+]([O-])/C(C(Cl)=C(Cl)Cl)=C1\NCCO1,TGI,786-0 renal,> 100 µM
same,TGI,SF-539 CNS,> 100 µM
same,TGI,A549 NSCLC,> 100 µM
same,TGI,SF-268 CNS,> 100 µM
same,TGI,EKVX NSCLC,> 100 µM
same,TGI,OVCAR-5 ovarian,> 100 µM
same,TGI,SK-OV-3 ovarian,> 100 µM
same,TGI,KM12 colon,> 100 µM
same,TGI,MDA-MB-435,> 100 µM
same,TGI,MDA-N,> 100 µM
same,TGI,UO-31 renal,> 100 µM
same,TGI,DU-145 prostate,> 100 µM
same,TGI,TK-10 renal,> 100 µM
same,TGI,HL-60(TB) leukemia,> 100 µM
same,TGI,NCI-H226 lung,> 100 µM
same,TGI,MOLT-4 leukemia,> 100 µM
same,TGI,OVCAR-4 ovarian,> 100 µM
same,TGI,SN12C renal,> 100 µM
same,TGI,SK-MEL-28 melanoma,> 100 µM
same,TGI,OVCAR-8 ovarian,> 100 µM
same,TGI,NCI-H522 lung,> 100 µM
same,TGI,U251 CNS,> 100 µM
same,TGI,NCI-H23 lung,> 100 µM
same,TGI,K-562 leukemia,> 100 µM
same,TGI,SNB-19 CNS,> 100 µM
same,TGI,SK-MEL-2 melanoma,> 100 µM
same,TGI,RPMI-8226 leukemia,> 100 µM
same,TGI,IGROV1 ovarian,> 100 µM
same,TGI,NCI/ADR-RES ovarian,> 100 µM
same,TGI,HS 578T breast,90.5 µM
same,TGI,MCF7 breast,> 100 µM
same,TGI,NCI-H460 lung,> 100 µM
same,TGI,A498 renal,> 100 µM
same,TGI,HCT-15 colon,> 100 µM
same,TGI,COLO 205 colon,> 100 µM
same,TGI,MDA-MB-231 breast,> 100 µM
same,TGI,MALME-3M melanoma,> 100 µM
same,TGI,UACC-257 melanoma,> 100 µM
same,TGI,M14 melanoma,> 100 µM
same,TGI,SR leukemia,> 100 µM
same,TGI,HT29 colon,> 100 µM
same,TGI,OVCAR-3 ovarian,> 100 µM
same,TGI,PC-3 prostate,> 100 µM
same,TGI,HOP-62 NSCLC,> 100 µM
same,TGI,HCC-2998 colon,> 100 µM
same,TGI,UACC-62 melanoma,> 100 µM
same,TGI,LOX IMVI melanoma,> 100 µM
same,TGI,SF-295 CNS,> 100 µM
same,TGI,CAKI-1 renal,> 100 µM
same,TGI,T-47D breast,> 100 µM
same,TGI,RXF 393 renal,> 100 µM
same,TGI,SK-MEL-5 melanoma,> 100 µM
same,TGI,HCT-116 colon,> 100 µM
same,TGI,CCRF-CEM leukemia,66.7 µM
same,TGI,ACHN renal,> 100 µM
